Common to all, as to format: cell-based
Experiment [1] relates to PANC-1 human pancreatic cell line. The experiment in a line: In vitro proliferation of PANC-1 cells (MTT). The following applies: 72 hours exposure, read-out: PANC-1 (IC50 μg/ml). Here is the method: (§1) Swiftiapregnene was analyzed as to its effect on the proliferation of PANC-1 human pancreatic and P388 murine leukemia cell lines. P388 cells were obtained from Dr. R. Camalier, National Cancer Institute, Bethesda, Md., and PANC-1 cells were obtained from American Type Culture Collection, Rockville, Md. All cell lines were maintained in tissue culture medium (TCM; Roswell Park Memorial Institute RPMI 1640 supplemented with 100 U/mL penicillin, […] streptomycin, […] 1-glutamine, 18 mM HEPES, 0.05 mg/mL gentamicin (Life Technologies, Gaithersburg, Md.) and 10% fetal bovine serum) and cultured in plastic tissue culture flasks at 37° C. in humidified air containing 5% CO2. Stock cultures of P388 cells were subcultured 1:20 in fresh TCM every 2 to 3 days. Stock cultures of A549 cells were subcultured 1:10 every 3 to 4 days. To assess the antiproliferative effects of agents against the cells, […] cultures (96-well tissue culture plates, Nunc, Denmark) were established at 1×10^5 cells/mL in TCM or TCM containing the test agent at 0.03-5.0 μg/mL. After 48-h exposures, P388 cells were enumerated using 3-[4,5-dimethylthiazol-2-yl]-2,5-diphenyltetrazolium bromide (MTT) as described in the literature (M. C. Alley, et al., Cancer Res. 48:589, 1988). […] The results were expressed as percent inhibition compared to the negative (no drug) control. […]

In experiment [2] the test system is A549 human lung cells. The experiment in a line: Cell cycle progression by flow cytometry (propidium iodide). The settings on record: 100 μg/ml, 24 hr. Here is the method:
Cell cycle studies were initiated in order to pinpoint a specific phase within the cell cycle in which discodermolide analogs were exerting their antiproliferative effect. A549 human lung cells were used as cell cycle targets to compare the effects of discodermolide and discodermolide analogs on perturbation of the cell cycle. Cell cycle analyses were performed as follows: A549 cells were incubated at 37° C. in 5% CO2 in air in the presence or absence of varying concentrations of discodermolide or discodermolide analogs for 24 hr. Cells were harvested, fixed in ethanol, washed, and stained with 0.2 mg/mL of propidium iodide (P.I.) together with 0.1 mg/mL of RNAse A. Stained preparations were analyzed on a Coulter EPICS ELITE flow cytometer with 488 nm excitation. Fluorescence measurements and resulting DNA histograms were collected from at least 10,000 P.I. stained cells at an emission wavelength of 690 nm. Raw histogram data was further analyzed using a cell cycle analysis program (Multicycle, Phoenix Flow Systems).
(In flow cytometry, cells or beads pass a laser one at a time.)

Experiment [3] deals with P388 murine leukemia cell line. In words: In vitro proliferation of P388 cells (MTT). The settings on record: Mus musculus, 48-h exposure, read-out: P388 (IC50 μg/ml). The method, then: as §1

On to `C=CC1CCC2C3CC=C4CC(OC5OC(C)C(O)C(O)C5OC(C)=O)CCC4(C)C3CCC12C` (stereo not drawn) [Swiftiapregnene (I), Swiftiapregnene], for which the IC50 in experiment [1] is 7.4 µg/mL; in experiment [3], 21 µg/mL. Besides, in experiment [2], the “effect on cell cycle (sub-G1 population)” value is reported as “increase in the sub-G1 population”.

These data come from patent publication US6784160B1, “Biologically active pregnene compounds” (Harbor Branch Oceanographic Institution, Inc., priority 2002, dated 2004).
